Results taken from US11186534B2, “Derivatives of sulindac can protect normal cells against oxidative damage” (University of South Alabama, priority 2017, dated 2021).

Assays:
[1] = test system: rat intact hearts (Langendorff model); assay: Langendorff model of ischemia/reperfusion injury, LDH release; format: in vivo, Sprague Dawley rats
Description: The ex vivo Langendorff procedure is a well-established preparation used to investigate heart physiology, ischemia/reperfusion injury, and other cardiovascular insults (23, 24; also see, e.g., reference 22). Sprague Dawley rats (275-325g) were administered either no drug or Compound 9 daily (at 0.7 mg/kg) for a total of two days (two administrations in total). Forty-eight hours after the start of drug exposure, hearts were removed and exposed to 45 min no flow ischemia and 2 h reperfusion in the Langendorff model (hearts were first equilibrated in KHB buffer for 10 min and then subjected to 45 min ischemia followed by 2 h reperfusion with KHB buffer), in the absence of drug.
In LDH and TTC assays for the Langendorff Preparation, coronary effluent samples (500 μL) from the Langendorff preparation were obtained upon attachment of excised heart, every 15 min before ischemia, immediately after 45 min ischemia, and at 15 min intervals during reperfusion. LDH was measured (using a Cytotox-96 nonradioactive cytotoxicity assay kit (Promega), with the absorbance read at 490 nm). Immediately upon completion, the heart was sliced into 2-mm cross-sectional pieces and slices were incubated for 30 min with 1% 2,3,5-triphenyl tetrazolium chloride (TTC) stain in Krebs-Henseleit buffer (KHB) (pH=7.4) at 37° C. to distinguish between viable (red) and nonviable (white) tissue. Tissue slices were stored overnight in 10% formaldehyde before measurement of infarct size using NIH-Image J software.
The protective (preconditioning) effect of Compound 9 was evaluated in an art-recognized Langendorff model of ischemia/reperfusion injury. Compound 9 was administered via i.p. injection to test animals daily for two days, and animal hearts were then removed for performance of the Langendorff procedure (described above and known in the art).

PDE5 = PDE5 (Homo sapiens, UniProt O76074); assay: IMAP fluorescence polarization PDE assay, PDE5; format: biochemical; settings: FIG. 5A
Description: (§1) PDE activity was measured using the IMAP fluorescence polarization PDE assay (Molecular Devices) in which the binding of hydrolyzed fluorescent cyclic nucleotide substrate to the IMAP reagent increases fluorescence polarization. Each well of a 96-well nonbinding plate contained 0.25 mg/mL of recombinant enzyme preparations. Enzymes were incubated with COMPOUND 9 or vehicle (DMSO) for 30 min at 30° C. before the addition of a substrate mixture containing 25 nmol/L of fluorescein-cGMP. The DMSO final concentration for each experiment was 2%. After 90 min of incubation at 30° C., the reaction was terminated by the addition of binding reagent. The maximum Fluorescence polarization was measured using a Synergy4 (BioTek) plate reader.

human recombinant COX-2 = target: T1, human recombinant COX-2 (Homo sapiens, UniProt P35354); assay: COX Fluorescent Inhibitor Screening assay, COX-2; format: biochemical; settings: FIG. 4B
T1 construct: purchased Cayman Chemical 700100
T1 sequence (P35354 18-604): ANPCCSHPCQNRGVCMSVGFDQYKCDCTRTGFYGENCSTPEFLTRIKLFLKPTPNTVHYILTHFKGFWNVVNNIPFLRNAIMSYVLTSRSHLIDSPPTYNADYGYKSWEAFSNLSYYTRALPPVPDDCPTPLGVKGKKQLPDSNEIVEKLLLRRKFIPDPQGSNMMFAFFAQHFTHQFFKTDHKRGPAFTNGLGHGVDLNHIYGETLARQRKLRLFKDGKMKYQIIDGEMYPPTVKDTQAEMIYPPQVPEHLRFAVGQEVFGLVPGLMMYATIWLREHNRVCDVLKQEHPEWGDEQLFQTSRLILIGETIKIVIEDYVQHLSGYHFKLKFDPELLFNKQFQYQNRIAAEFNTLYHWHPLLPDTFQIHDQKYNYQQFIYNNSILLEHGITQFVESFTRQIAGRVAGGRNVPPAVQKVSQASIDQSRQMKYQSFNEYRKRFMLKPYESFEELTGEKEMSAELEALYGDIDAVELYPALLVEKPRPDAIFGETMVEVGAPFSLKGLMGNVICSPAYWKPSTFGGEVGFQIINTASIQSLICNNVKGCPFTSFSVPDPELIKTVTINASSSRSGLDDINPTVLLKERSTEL
Description: Compounds were assayed for cyclooxygenase (COX) inhibition using the COX Fluorescent Inhibitor Screening Kit from Cayman Chemical (Item #: 700100). Briefly, COX enzyme (ovine COX-1 or human recombinant COX-2) diluted in 1× reaction buffer is incubated with the compound or DMSO control for 20 min at 25° C. in a half-area 96-well black microplate. Background wells are also included that contained no enzyme. Added to each well were heme B, to ensure enzyme activity, and 10-acetyl-3,7-dihydroxyphenoxazine (ADHP) assay reagent. After the 20 min incubation, arachidonic acid (AA) substrate was added to all wells. As shown by the schematic diagram below, active COX enzyme converts AA to hydroperoxy endoperoxide (PGG2). Catalyzed by the secondary peroxidase activity of COX, ADHP can react with PGG2 to form a highly fluorescent compound, resorufin. Fluorescence was measured with a […] excitation wavelength and a 585-595 nm emission wavelength. Decreased fluorescence relative to the DMSO control indicates COX inhibition. See, also, Piazza G A, Keeton A B, Tinsley H N, Gary B D, Whitt J D, Mathew B, Thaiparambil J, Coward L, Gorman, G, Li Y, Sani B, Hobrath J V, Maxuitenko Y Y and Reynolds R C. […] Cancer Prevention Research 2009; 2: 572-580.

PDE10 = PDE10 (Homo sapiens, UniProt Q9Y233); assay: IMAP fluorescence polarization PDE assay, PDE10; format: biochemical; settings: FIG. 5B
Description: as §1

[2] = 0.7 mg/kg i.p. daily for 48 h, FIG. 9

Chain of PDE10 (Q9Y233 whole entry): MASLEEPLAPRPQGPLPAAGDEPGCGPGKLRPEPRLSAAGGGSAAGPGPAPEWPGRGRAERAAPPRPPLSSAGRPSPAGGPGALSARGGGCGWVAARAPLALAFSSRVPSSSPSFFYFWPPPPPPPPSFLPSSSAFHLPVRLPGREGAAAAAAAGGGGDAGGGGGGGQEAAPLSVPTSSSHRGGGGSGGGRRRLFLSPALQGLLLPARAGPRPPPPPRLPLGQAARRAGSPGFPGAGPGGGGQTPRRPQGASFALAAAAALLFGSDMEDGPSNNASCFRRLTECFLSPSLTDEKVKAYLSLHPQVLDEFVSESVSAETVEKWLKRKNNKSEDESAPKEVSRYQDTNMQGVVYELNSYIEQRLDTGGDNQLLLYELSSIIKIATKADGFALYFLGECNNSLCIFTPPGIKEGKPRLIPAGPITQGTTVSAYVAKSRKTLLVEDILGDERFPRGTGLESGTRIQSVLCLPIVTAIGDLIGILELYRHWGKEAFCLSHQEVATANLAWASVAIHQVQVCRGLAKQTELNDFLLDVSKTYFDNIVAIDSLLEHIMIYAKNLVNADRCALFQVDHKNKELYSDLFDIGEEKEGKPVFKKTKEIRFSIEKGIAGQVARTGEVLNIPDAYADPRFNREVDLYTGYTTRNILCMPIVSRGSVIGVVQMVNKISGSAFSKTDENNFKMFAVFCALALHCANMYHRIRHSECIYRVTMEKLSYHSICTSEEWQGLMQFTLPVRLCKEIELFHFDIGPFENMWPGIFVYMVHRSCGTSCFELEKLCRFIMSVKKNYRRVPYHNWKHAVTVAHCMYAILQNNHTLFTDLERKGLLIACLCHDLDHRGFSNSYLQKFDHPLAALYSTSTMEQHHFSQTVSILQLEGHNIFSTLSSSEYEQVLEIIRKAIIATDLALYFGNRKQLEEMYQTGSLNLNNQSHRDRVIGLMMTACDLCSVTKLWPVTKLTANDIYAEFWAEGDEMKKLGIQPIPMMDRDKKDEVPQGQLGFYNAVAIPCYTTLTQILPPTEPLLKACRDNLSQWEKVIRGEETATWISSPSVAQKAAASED

Compound: COc1cc2c(cc1OC)/C(=C\c1cc(OC)c(OC)c(OC)c1)C(C)=C2CC(=O)O [Compound 9, (Z)-2-(5,6-dimethoxy-2-methyl-1-(3,4,5-trimethoxybenzylidene)-1H-inden-3-yl)acetic acid]
- Protective effect during the 45 min ischemia phase [1, 2]: robust protective effect
- Protective effect during the 2 h reperfusion phase [1, 2]: robust protective effect
- LDH levels vs no drug control ([1]; 2 h reperfusion, 0.7 mg/kg daily for 48 h, FIG. 7): decrease in LDH levels
- Levels of LDH released vs no drug ([1]; after 45 min no flow ischemia, 0.7 mg/kg daily for 48 h, FIG. 7): significantly lower
- IC50 (PDE5): ~32 µM
- COX-2 inhibition: fold less potent than celecoxib (human recombinant COX-2): approximately 1000 ×
- IC50 (PDE10): ~7 µM
